{"source": "patent US20080318908A1", "about": "“USE OF GABA AND GABAB AGONISTS” (TRUSTEES OF TUFTS COLLEGE, priority 2002, published 2008)", "format_in_all_cases": "cell-based, rat", "key": {"islets [1]": {"test_system": "islets", "test": "Islet total DNA content, Cyquant fluorescence assay", "procedure": "To examine the potential function of GABAB receptor signaling in islet tissue, islets were enzymatically isolated from exocrine pancreas and studied in vitro. Islets were size-selected for these studies because of our observation that small islets (<150 μm diameter) express GABAB receptors more abundantly. Islets (equivalent to ˜10,000 cells per well of a 96 well culture plate) were incubated for 45 minutes with (or without) 100 μM GABA, washed once with growth medium M199, maintained for 4 hours at 37° C., and subsequently analyzed for total DNA content using a Cyquant (Molecular Probes) fluorescence assay. […] Large islets, by contrast, were much less responsive to GABA; increasing only by 15±4.5% in the same time period. The growth-promoting effect of GABA was mimicked by the selective GABAB receptor agonist, S-baclofen and inhibited with either 2OH-saclofen (a selective inhibitor of GABAB receptors) or the N-terminal antibody to the GABAB receptor (FIG. 4A).\nTo further evaluate the interactions between glucose and GABAB receptor activation, we measured GABA-mediated proliferation over a range of glucose concentrations."}, "islets [2]": {"test_system": "islets", "test": "[3H]thymidine incorporation in islets", "details": "label present throughout the 4.75 hour experimental period", "procedure": "[^3H]thymidine incorporation was employed as an alternative assay for DNA synthesis, with similar results to those of the fluorescence assay. The labeled nucleotide was added to the culture medium and was present throughout the 4.75 hour experimental period. GABA, and the agonist baclofen, acting via GABAB receptors produced a respective 143±19% and 115±4% increase in [^3H]thymidine incorporation (FIG. 4B)."}, "islets [3]": {"test_system": "islets", "test": "BrdU labeling of dividing islet cells", "details": "4.75 hours; GABA-treated versus control islets", "procedure": "To identify which cells in islets underlie the increase in DNA synthesis, cells treated with GABA were exposed to BrdU, to label the dividing cells, and compared to control cells. […] Given the brief incorporation period (4 hours following GABA exposure), such profiles imply that the responsive cells are likely to be synchronized in S phase."}, "spleen cells": {"test_system": "spleen cells", "test": "DNA content of dissociated cultured spleen, Cyquant assay", "details": "100 micromolar for 45 minutes, then four hours in fresh medium at 37°", "procedure": "An experiment to test the ability of GABA and the GABAB receptor agonist to stimulate growth of other tissues was undertaken. Rat spleen was mechanically dissociated in trypsin, washed, and plated identical to the experiments using rat islets, described above. The dissociated tissue was cultured in the presence of 100 micromolar GABA or baclofen for 45 minutes and compared to cultured but untreated dissociated spleen. After 45 minutes the media was changed and the tissue incubated in fresh medium for four hours at 37°. DNA measurements were made by the Cyquant assay by Molecular Probes."}, "islets [4]": {"test_system": "islets", "test": "Glucose-stimulated proliferation in islets (DNA content)", "procedure": "Others have shown that islet mass can increase by as much as 50% in just 96 hours of glucose infusion in vivo, an effect that results from increases in both cell size and cell number^15. Given that metabolism of glucose alone promotes secretion from β cells, we tested the hypothesis that glucose-stimulated proliferation in islets involves the activation of GABAB receptors by GABA released during glucose application. Islets were exposed to 5.6 mM glucose (a maximal proliferative stimulus in human islets) for 4.75 hours in the presence or absence of 2OH-saclofen or the GBR1 N-terminal antibody. Glucose promoted a small, but significant, 7±1% stimulation of control islets during this time (FIG. 5A)."}}, "data": [{"smiles": "NCCCC(=O)O", "note": "[GABA, 4-aminobutanoic acid]", "values": [{"measurement": "GABA-stimulated DNA synthesis at moderate glucose", "setting": "islets [1]; 45 min exposure to 100 μM GABA, 5.6 mM glucose", "result": "peaked at moderate glucose concentrations"}, {"measurement": "GABA-stimulated DNA synthesis at higher glucose", "setting": "islets [1]; 45 min exposure to 100 μM GABA, 16.7 mM glucose", "result": "suppressed the stimulatory effect of GABA"}, {"measurement": "increase in DNA synthesis, large islets", "setting": "islets [1]; large islets, 100 μM GABA 45 minutes, same 4.75 hour period", "result": "15±4.5", "unit": "%"}, {"measurement": "increase in DNA synthesis, small islets", "setting": "islets [1]; small islets (<150 μm diameter), 100 μM GABA 45 minutes, then 4 hours at 37° C., 4.75 hours total", "result": 45, "unit": "%"}, {"measurement": "increase in [3H]thymidine incorporation", "setting": "islets [2]", "result": "143±19", "unit": "%"}, {"measurement": "BrdU incorporation", "setting": "islets [3]", "result": "detectable BrdU incorporation"}, {"measurement": "DNA content of cultured spleen cells versus untreated", "setting": "spleen cells", "result": "promoted an increase in the DNA content"}]}, {"smiles": "OC[C@H]1OC(O)[C@H](O)[C@@H](O)[C@@H]1O", "note": "(stereo partly shown) [Glucose]", "values": [{"measurement": "stimulation of control islets (DNA)", "setting": "islets [4]; 5.6 mM glucose for 4.75 hours", "result": "7±1", "unit": "%"}]}, {"smiles": "NC[C@@H](CC(=O)O)c1ccc(Cl)cc1", "note": "[S-baclofen, reference compound]", "values": [{"measurement": "growth-promoting effect of GABA mimicked by agonist", "setting": "islets [1]; isolated islets, FIG. 4A, 100 μM", "result": "mimicked"}]}, {"smiles": "NCC(CC(=O)O)c1ccc(Cl)cc1", "note": "(stereo not shown) [baclofen, 4-amino-3-(4-chlorophenyl)butanoic acid, reference compound]", "values": [{"measurement": "increase in [3H]thymidine incorporation", "setting": "islets [2]", "result": "115±4", "unit": "%"}, {"measurement": "DNA content of cultured spleen cells versus untreated", "setting": "spleen cells", "result": "promoted an increase in the DNA content"}]}, {"smiles": "NCC(O)(CS(=O)(=O)O)c1ccc(Cl)cc1", "note": "(stereo not shown) [2OH-saclofen, reference compound]", "values": [{"measurement": "effect on growth-promoting effect of GABA", "setting": "islets [1]; isolated islets with GABA, FIG. 4A, 100 μM antagonist or antibody 1:1000", "result": "inhibited"}, {"measurement": "DNA, % of DNA content measured at the beginning of the incubation period", "setting": "islets [4]; 5.6 mM glucose for 4.75 hours in the presence of 2OH-saclofen", "result": "92±4", "unit": "%"}]}]}
